Measured values from US20140295012A1, “LATENT HUMAN IMMUNODEFICIENCY VIRUS REACTIVATION” (priority 2011, published 2014).

B1: HEXIM-1 (other, UniProt O94992 1-359, looked up)
chain: MAEPFLSEYQHQPQTSNCTGAAAVQEELNPERPPGAEERVPEEDSRWQSRAFPQLGGRPGPEGEGSLESQPPPLQTQACPESSCLREGEKGQNGDDSSAGGDFPPPAEVEPTPEAELLAQPCHDSEASKLGAPAAGGEEEWGQQQRQLGKKKHRRRPSKKKRHWKPYYKLTWEEKKKFDEKQSLRASRIRAEMFAKGQPVAPYNTTQFLMDDHDQEEPDLKTGLYSKRAAAKSDDTSDDDFMEEGGEEDGGSDGMGGDGSEFLQRDFSETYERYHTESLQNMSKQELIKEYLELEKCLSRMEDENNRLRLESKRLGGDDARVRELELELDRLRAENLQLLTENELHRQQERAPLSKFGD

What was measured:
[1] = tested on: latently HIV-1 infected primary T cells; assay: Reactivation of latent HIV-1 infection in primary T cells (GFP); type: cell-based; conditions: 24 hours
Method: Latently HIV-1 infected primary T cells were treated for 24 hours with aclacinomycin (ACM) or dactinomycin (ActD), or with the anti-CD3 monoclonal antibody (mAb) OKT3. Reactivation levels were determined as a percentage of GFP-positive cells 24 hours after stimulation. Viability of the cells correlates with the size of the symbol.
To determine if aclacinomycin or dactinomycin were capable of reactivating a latent HIV-1 infection in primary T cells, latently HIV-1 infected primary T cells were treated with aclacinomycin or dactinomycin or with the anti-CD3 monoclonal antibody OKT3 for 24 hours. Reactivation of the latent HIV-1 infection was observed by increasing levels of GFP fluorescence.

[2] = tested on: latently HIV-1 infected CA5 T cells; type: cell-based; conditions: CA5 cells pretreated with increasing concentrations
Method: Infection levels in the cell cultures were monitored by flow cytometric analysis of EGFP expression. Flow cytometric analysis was performed on a GUAVA EasyCyte (Millipore; Billerica, Mass.), or a LSRII (Becton & Dickinson; Franklin Lakes, N.J.).
Bacterial growth. Bacteria from various sources were isolated on TSA II agar plates containing 5% sheep blood. Bacterial isolates were then grown in RPMI 1640 medium supplemented with 10% FBS. After two days of incubation at 37° C. bacteria were pelleted and resuspended in RPMI medium to an optical density (OD600) of 8, aliquoted and frozen at −80° C. Unless otherwise indicated, Massilia timonae was grown in RPMI 1640 medium supplemented with 10% FBS. Typically, medium was inoculated with Massilia timonae from frozen stocks to an OD600 of 0.01. After 48 hours at 37° C., the culture was centrifuged at 3200 g to separate bacteria from the culture medium. Bacteria were resuspended in fresh medium to an OD600 of 8 and frozen to be used as references and stock cultures. The supernatant was then centrifuged at 10,000 g for 20 minutes and sterilized by passage through a 0.2 μm PVDF filter with low protein binding ability. HRF activity was determined by its ability to reactivate latent HIV-1 infection in CA5 cells. Only supernatants of which 6 μl reactivated infection in at least 60% of CA5 cells were used to study HRF properties.
Flow cytometry. Infection levels in the cell cultures were monitored by flow cytometric (FCM) analysis of GFP expression. FCM analysis was performed on a GUAVA EasyCyte (GUAVA Technologies, Inc.; Millipore; Billerica, Mass.) and a BD FACSCalibur or a LSRII (Becton & Dickinson; Franklin Lakes, N.J.). Cell sorting experiments were performed using a FACSAria™ Flow Cytometer (Becton&Dickinson). Data analysis was performed using either CellQuest (Becton&Dickinson) or GUAVA Express (GUAVA Technologies, Inc.).
To identify the optimal concentration of dactinomycin, CA5 T cells were pretreated with increasing concentrations of dactinomycin (0.0001 and 1 μg/ml), and then left untreated or stimulated with a sub-optimal concentration of HRF or TNF-α. Representative results for stimulation with HRF are depicted in FIG. 3. The chosen HRF concentration has only minimal HIV-1 reactivating effect by itself (15% reactivation over background). Twenty four hours after activator addition, levels of HIV-1 reactivation were determined as the percentage of GFP-positive cells using flow cytometric analysis, which allowed for the simultaneous determination of cell viability. […] Optimal pretreatment time was 18 hours. Maximum reactivation effects were seen 48 hours after stimulation.

[3] = target: T1, positive transcription elongation factor (P-TEFb), a complex of CDK9 and Cyclin T1 (UniProt P50750 1-372; O60563 1-726); assay: glycerol gradient (10-45%) sedimentation of J89GFP cell lysates, Western blot of the fractions with anti-CDK9 and anti-HEXIM-1
T1 construct: also called CDK9/CycT1
T1 sequence (P50750 whole entry, chain 1 of 2): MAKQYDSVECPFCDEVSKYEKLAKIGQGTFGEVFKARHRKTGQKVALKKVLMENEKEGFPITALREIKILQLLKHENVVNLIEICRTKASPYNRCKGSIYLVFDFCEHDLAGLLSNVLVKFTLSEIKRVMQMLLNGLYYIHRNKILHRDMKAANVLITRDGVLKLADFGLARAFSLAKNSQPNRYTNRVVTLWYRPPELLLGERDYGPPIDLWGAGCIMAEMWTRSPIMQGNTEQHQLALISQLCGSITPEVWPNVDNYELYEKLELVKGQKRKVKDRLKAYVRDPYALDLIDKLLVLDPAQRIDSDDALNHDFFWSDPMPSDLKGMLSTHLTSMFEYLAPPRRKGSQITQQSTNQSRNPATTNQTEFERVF
T1 sequence (O60563 whole entry, chain 2 of 2): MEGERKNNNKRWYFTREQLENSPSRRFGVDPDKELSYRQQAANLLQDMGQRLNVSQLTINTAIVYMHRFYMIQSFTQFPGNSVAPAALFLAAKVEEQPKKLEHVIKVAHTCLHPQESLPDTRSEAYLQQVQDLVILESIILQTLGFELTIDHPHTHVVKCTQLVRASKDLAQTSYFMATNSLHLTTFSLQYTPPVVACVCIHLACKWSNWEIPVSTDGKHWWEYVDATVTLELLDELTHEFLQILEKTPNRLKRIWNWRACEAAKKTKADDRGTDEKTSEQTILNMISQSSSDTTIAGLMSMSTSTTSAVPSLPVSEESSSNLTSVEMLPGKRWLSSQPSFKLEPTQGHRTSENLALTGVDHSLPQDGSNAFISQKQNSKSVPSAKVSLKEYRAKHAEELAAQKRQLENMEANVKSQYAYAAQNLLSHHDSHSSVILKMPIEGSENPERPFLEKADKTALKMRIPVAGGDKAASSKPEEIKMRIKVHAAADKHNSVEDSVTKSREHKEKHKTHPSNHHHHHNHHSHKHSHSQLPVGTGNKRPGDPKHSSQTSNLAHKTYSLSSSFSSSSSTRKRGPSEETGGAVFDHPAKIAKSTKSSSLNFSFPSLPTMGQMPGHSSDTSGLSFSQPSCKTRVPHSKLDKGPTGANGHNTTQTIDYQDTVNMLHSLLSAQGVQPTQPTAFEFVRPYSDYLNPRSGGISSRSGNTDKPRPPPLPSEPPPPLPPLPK
Method: Each gradient fraction was separated on a 10% SDS-PAGE gel and transferred by Western blot. […] Band densities were determined using ImageJ and are presented as relative band density. […] Band densities were determined using ImageJ and are presented as relative band density.
Fractions were resolved on 10% SDS-PAGE and transferred to polyvinylidene fluoride membrane.
Each gradient fraction was separated on a SDS-PAGE gel and subjected to Western blotting.

Molecule	reactivation of latent HIV-1 infection [1]	priming effect on HIV-1 reactivation by sub-optimal dose of HRF [2]	binding result [3]
CC[C@@]1(O)C[C@H](O[C@H]2C[C@H](N(C)C)[C@H](O[C@H]3C[C@H](O)[C@H](O[C@H]4CCC(=O)[C@H](C)O4)[C@H](C)O3)[C@H](C)O2)c2c(cc3c(c2O)C(=O)c2c(O)cccc2C3=O)[C@H]1C(=O)OC [aclacinomycin]	capable of reactivating latent HIV-1 infections	strong priming effect	
B1			binds
